In PubChem BioAssay (NCI):
Several values for one entry are separate records, joined by “and”; a condition that tells them apart may be missing. Equal entries are not always repeated.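 48-hour exposure; five concentrations; linearly interpolated endpoints. GI50: concentration for 50% inhibition of growth. At the TGI there is no net growth.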

Legend:
Assay in all cases: inhibition of tumour cell growth, NCI panel, 48 h
[1] = tested on: HCT-116 colon
[2] = tested on: SF-268 CNS
[3] = tested on: U251 CNS
[4] = tested on: T-47D breast
[5] = tested on: EKVX NSCLC
[6] = tested on: SF-295 CNS
[7] = tested on: MOLT-4 leukemia
[8] = tested on: SNB-75 CNS
[9] = tested on: K-562 leukemia
[10] = tested on: LOX IMVI melanoma

SMILES	GI50 [1]	TGI [1]	GI50 [2]	TGI [2]	GI50 [3]	TGI [3]	GI50 [4]	TGI [4]	GI50 [5]	TGI [5]	GI50 [6]	TGI [6]	GI50 [7]	TGI [7]	GI50 [8]	TGI [8]	GI50 [9]	TGI [9]	GI50 [10]	TGI [10]
COc1cccc(/C=N\NC(=O)c2ccncc2)c1O	3.47 µM	> 100 µM	3470 nM	> 100 µM	2950 nM	> 100 µM	3460 nM	> 100 µM	6780 nM	> 100 µM	3.35 µM	71.2 µM	3040 nM	> 100 µM	47600 nM	> 100 µM	13.7 µM	> 100 µM	2200 nM	> 100 µM
O=C(Nc1ccc(I)cc1F)c1cc(Br)ccc1O	0.411 µM	1.96 µM	498 nM	8.07 µM	754 nM	> 100 µM	353 nM	2.54 µM	1040 nM	7.22 µM	1.73 µM	3.39 µM	1390 nM	5.6 µM	451 nM	2.23 µM	0.431 µM	> 100 µM	474 nM	2.75 µM
O=C(Nc1ccc(Cl)c(C(F)(F)F)c1)Nc1ccc(-c2cccnc2)cc1N1CCC(CO)CC1	2.53 µM	6.9 µM	2390 nM	8.21 µM	2410 nM	7.1 µM	2090 nM	7.76 µM	1720 nM	> 100 µM	2.11 µM	5.15 µM	2570 nM	> 100 µM	2100 nM	8.03 µM	3.3 µM	> 100 µM	1920 nM	3.66 µM
CC(=O)O[C@@H]1c2c(c3c(=O)c4cccc(O)c4c(=O)c=3c2=[N+]=[N-])[C@H](OC(C)=O)[C@@H](OC(C)=O)[C@]1(C)O	0.271 µM	0.617 µM and 0.89 µM	391 nM	0.914 µM and 1.67 µM	532 nM and 101 nM	1.14 µM and 0.222 µM	132 nM and 317 nM	0.649 µM and 1.39 µM	122 nM	1.38 µM and 0.663 µM	0.785 µM	1.5 µM and 1.56 µM	67.5 nM	0.275 µM and 0.358 µM	582 nM	0.851 µM and 1.69 µM	0.0909 µM	3.1 µM and 0.444 µM	–	0.413 µM and 0.275 µM
COc1cccc(S(=O)(=O)NC2=NCCN2C(=S)SN2CCn3c2nsc3=S)c1	16.4 µM	33 µM	59300 nM	> 100 µM	22000 nM	61.8 µM	23300 nM	51 µM	95700 nM	> 100 µM	> 100 µM	> 100 µM	32500 nM	> 100 µM	30000 nM	89.6 µM	31.4 µM	92.3 µM	13200 nM	26.5 µM
c1cc(OCCN2CCCC2)ccc1CNc1ccc2nc(CCC3CCCCC3)[nH]c2c1	1.43 µM	3.2 µM	1820 nM	4.38 µM	1410 nM	3.16 µM	1810 nM	4.9 µM	1860 nM	6.51 µM	1.97 µM	3.86 µM	1760 nM	5.81 µM	1270 nM	3.31 µM	0.414 µM	2.11 µM	1670 nM	3.11 µM
COc1cc(-n2cc(-c3ccc(Cl)cc3)n(-c3ccccc3)c2=O)cc(OC)c1OC	13.7 µM	> 89 µM	31200 nM	> 100 µM	23500 nM	> 100 µM	8010 nM	74 µM	18500 nM	> 100 µM	19.3 µM	> 100 µM	11300 nM	> 51.6 µM	20900 nM	> 100 µM	13.6 µM	> 100 µM	24300 nM	> 100 µM
COc1ccc(Nc2ncc(I)c(NCCCNC(=O)C3CCC3)n2)cc1	4.01 µM	20.6 µM	2010 nM	29.9 µM	2080 nM	28.9 µM	28400 nM	79 µM	6480 nM	76.6 µM	3.5 µM	> 100 µM	4320 nM	> 100 µM	464 nM	7.75 µM	8.99 µM	> 100 µM	1660 nM	13.6 µM
NC(=O)c1cn(C2CC(O)C(CO)O2)c2ncnc(N)c12 (centres undefined)	4.1 µM	> 100 µM	6170 nM	> 76.9 µM	17700 nM	> 100 µM	54.9 nM	1.82 µM	1920 nM	> 23.2 µM	12.6 µM	> 76.6 µM	611 nM	> 100 µM	1520 nM	9.47 µM	4.21 µM	> 100 µM	1200 nM	4.43 µM
